{
  "source": "patent US11564923B2",
  "about": "“Compounds and pharmaceutical compositions thereof for the treatment of inflammatory disorders” (Galapagos NV, priority 2017, dated 2023)",
  "note": "pIC50: −log10 of the molar value.",
  "data": [
    {"biological_target": "T1, Recombinant human TYK2 catalytic domain (amino acids 871-1187) (Homo sapiens, UniProt P29597)", "T1 construct": "catalytic domain (amino acids 871-1187)", "T1 sequence (P29597 871-1187)": "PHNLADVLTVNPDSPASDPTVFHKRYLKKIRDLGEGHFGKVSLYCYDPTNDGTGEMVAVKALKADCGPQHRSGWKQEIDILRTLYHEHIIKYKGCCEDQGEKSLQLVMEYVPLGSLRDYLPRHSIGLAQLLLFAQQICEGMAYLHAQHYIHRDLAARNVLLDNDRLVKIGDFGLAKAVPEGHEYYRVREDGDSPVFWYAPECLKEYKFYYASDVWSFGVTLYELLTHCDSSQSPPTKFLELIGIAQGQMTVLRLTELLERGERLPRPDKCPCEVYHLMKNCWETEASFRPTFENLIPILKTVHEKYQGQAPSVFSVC", "assay": "TYK2 radioactive assay polyGT substrate; also: 0.1 µM ATP", "assay_type": "biochemical", "description": "After 120 min at 30° C., reactions were stopped by adding 25 μL/well of 150 mM phosphoric acid. […] Plates were washed 6 times with 300 μL per well of a 75 mM phosphoric acid solution and the bottom of the plates is sealed. […] Kinase activity is calculated by subtracting counts per min (cpm) obtained in the presence of a positive control inhibitor (10 μM staurosporine) from cpm obtained in the presence of vehicle. The ability of a test compound to inhibit this activity (or percentage inhibition) is determined as: […]\ncpm test compound=cpm determined for sample with test compound present cpm control=cpm determined for sample with positive control inhibitor cpm vehicle=cpm determined in the presence of vehicle\nDose dilution series were prepared for the compounds enabling the testing of dose-response effects in the TYK2 assay and the calculation of the IC50 for each compound. Each compound is routinely tested at concentration of 20 μM followed by a 1/5 serial dilution, 10 points in a final concentration of 1% DMSO.", "values": [
      {"molecule": "Cc1cc(C#N)ncc1Oc1cc(Nc2ccc(C(=O)N3C[C@@H](O)[C@H](F)C3)cn2)c2ncn(C)c2n1", "note": "(racemic) [Compound 140, 4-methyl-5-[3-methyl-7-[[5-[rac-(3R,4R)-3-fluroo-4-hydroxypyrrolidine-1-carbonyl]pyridin-2-yl]amino]imidazo[4,5-b]pyridin-5-yl]oxypyridine-2-carbonitrile]", "pIC50": 8.54},
      {"molecule": "Cc1cc(C#N)ncc1Oc1cc(Nc2ccc(C(=O)N3CCOC[C@H]3C(C)C)cn2)c2ncn(C)c2n1", "note": "[Compound 157, 4-methyl-5-[3-methyl-7-[[5-[(3R)-3-propan-2-ylmorpholine-4-carbonyl]pyridin-2-yl]amino]imidazo[4,5-b]pyridin-5-yl]oxypyridine-2-carbonitrile]", "pIC50": 9.01},
      {"molecule": "Cc1cc(C#N)ncc1Oc1cc(Nc2ccc(N3CCOCC3)cc2)c2ncn(C)c2n1", "note": "[Compound 109, 4-methyl-5-[3-methyl-7-(4-morpholinoanilino)imidazo[4,5-b]pyridin-5-yl]oxy-pyridine-2-carbonitrile]", "pIC50": 7.61},
      {"molecule": "COC1(C)CN(C(=O)c2ccc(Nc3cc(Oc4cnc(C#N)cc4C)nc4c3ncn4C)nc2)C1", "note": "[Compound 121, 5-[7-[[5-(3-methoxy-3-methyl-azetidine-1-carbonyl)-2-pyridyl]amino]-3-methyl-imidazo[4,5-b]pyridin-5-yl]oxy-4-methyl-pyridine-2-carbonitrile]", "pIC50": 8.72},
      {"molecule": "Cc1cc(C#N)ncc1Oc1cc(Nc2ccc(N3CCC(C#N)CC3)nn2)c2ncn(C)c2n1", "note": "[Compound 45, 5-{7-[6-(4-Cyano-piperidin-1-yl)-pyridazin-3-ylamino]-3-methyl-3H-imidazo[4,5-b]pyridin-5-yloxy}-4-methyl-pyridine-2-carbonitrile]", "pIC50": 8.66},
      {"molecule": "CCNC(=O)Cc1ccc(Nc2cc(Oc3cnc(C#N)cc3C)nc3c2ncn3C)cc1", "note": "[Compound 27, 2-{4-[5-(6-Cyano-4-methyl-pyridin-3-yloxy)-3-methyl-3H-imidazo[4,5-b]pyridin-7-ylamino]-phenyl}-N-ethyl-acetamide]", "pIC50": 7.41},
      {"molecule": "COC1CCN(C(=O)c2ccc(Nc3cc(Oc4cnc(C#N)cc4C)nc4c3ncn4C)nc2)CC1", "note": "[Compound 125, 5-[7-[[5-(4-methoxypiperidine-1-carbonyl)pyridin-2-yl]amino]-3-methylimidazo[4,5-b]pyridin-5-yl]oxy-4-methylpyridine-2-carbonitrile]", "pIC50": 8.65},
      {"molecule": "Cc1cc(C#N)ncc1Oc1cc(Nc2ccc(C(=O)N3CC(CN(C)C)C3)cn2)c2ncn(C)c2n1", "note": "[Compound 132, 5-[7-[[5-[3-[(dimethylamino)methyl]azetidine-1-carbonyl]pyridin-2-yl]amino]-3-methylimidazo[4,5-b]pyridin-5-yl]oxy-4-methylpyridine-2-carbonitrile]", "pIC50": 8.05},
      {"molecule": "Cc1cc(C#N)ncc1Oc1cc(Nc2ccc(C(=O)N(C)CCO)cn2)c2ncn(C)c2n1", "note": "[Compound 136, 6-[[5-(6-cyano-4-methylpyridin-3-yl)oxy-3-methylimidazo[4,5-b]pyridin-7-yl]amino]-N-(2-hydroxyethyl)-N-methylpyridine-3-carboxamide]", "pIC50": 8.56},
      {"molecule": "Cc1cc(C#N)ncc1Oc1cc(Nc2ccc(C(=O)N3CCOC(C#N)C3)cn2)c2ncn(C)c2n1", "note": "(centres unmarked) [Compound 160, 4-[6-[[5-(6-cyano-4-methylpyridin-3-yl)oxy-3-methylimidazo[4,5-b]pyridin-7-yl]amino]pyridine-3-carbonyl]morpholine-2-carbonitrile]", "pIC50": 8.86},
      {"molecule": "Cc1cc(C#N)ncc1Oc1cc(Nc2ccc(C(=O)N3CCOCC3C3CC3)cn2)c2ncn(C)c2n1", "note": "(centres unmarked) [Compound 159, 5-[7-[[5-(3-cyclopropylmorpholine-4-carbonyl)pyridin-2-yl]amino]-3-methylimidazo[4,5-b]pyridin-5-yl]oxy-4-methylpyridine-2-carbonitrile]", "pIC50": 8.99},
      {"molecule": "Cc1cc(C#N)ncc1Oc1cc(Nc2ccc(C(=O)N3CC[C@@H](O)C3)cn2)c2ncn(C)c2n1", "note": "[Compound 127, 5-[7-[[5-[(3R)-3-hydroxypyrrolidine-1-carbonyl]pyridin-2-yl]amino]-3-methylimidazo[4,5-b]pyridin-5-yl]oxy-4-methylpyridine-2-carbonitrile]", "pIC50": 8.47},
      {"molecule": "Cc1cc(C#N)ncc1Oc1cc(Nc2ccc(C(=O)NCCCO)cn2)c2ncn(C)c2n1", "note": "[Compound 101, 6-[[5-[(6-cyano-4-methyl-3-pyridyl)oxy]-3-methyl-imidazo[4,5-b]pyridin-7-yl]amino]-N-(3-hydroxypropyl)pyridine-3-carboxamide]", "pIC50": 8.03},
      {"molecule": "CO[C@@H]1CN(C(=O)c2ccc(Nc3cc(Oc4cnc(C#N)cc4C)nc4c3ncn4C)nc2)C[C@H]1F", "note": "(racemic) [Compound 142, 4-methyl-5-[3-methyl-7-[[5-[rac-(3R,4R)-3-fluoro-4-methoxypyrrolidine-1-carbonyl]pyridin-2-yl]amino]imidazo[4,5-b]pyridin-5-yl]oxypyridine-2-carbonitrile]", "pIC50": 8.34},
      {"molecule": "Cc1cc(C#N)ncc1Oc1cc(Nc2ccc(N3CCN(C)CC3)cc2)c2ncn(C)c2n1", "note": "[Compound 110, 4-methyl-5-[3-methyl-7-[4-(4-methylpiperazin-1-yl)anilino]imidazo[4,5-b]pyridin-5-yl]oxy-pyridine-2-carbonitrile]", "pIC50": 7.57},
      {"molecule": "CNC(=O)c1ccc(Nc2cc(Oc3cnc(C#N)cc3C)nc3c2ncn3C)cn1", "note": "[Compound 29, 5-[5-(6-Cyano-4-methyl-pyridin-3-yloxy)-3-methyl-3H-imidazo[4,5-b]pyridin-7-ylamino]-pyridine-2-carboxylic acid methylamide]", "pIC50": 7.01},
      {"molecule": "Cc1cc(C#N)ncc1Oc1cc(Nc2ccc(C(=O)N3CC4(COC4)C3)cn2)c2ncn(C)c2n1", "note": "[Compound 134, 4-methyl-5-[3-methyl-7-[[5-(2-oxa-6-azaspiro[3.3]heptane-6-carbonyl)pyridin-2-yl]amino]imidazo[4,5-b]pyridin-5-yl]oxypyridine-2-carbonitrile]", "pIC50": 8.68},
      {"molecule": "Cc1cc(C#N)ncc1Oc1cc(Nc2ccc(C(=O)N3CCN(C(=O)OC(C)(C)C)CC3)cn2)c2ncn(C)c2n1", "note": "[Compound 128, 4-{6-[5-(6-Cyano-4-methyl-pyridin-3-yloxy)-3-methyl-3H-imidazo[4,5-b]pyridin-7-ylamino]-pyridine-3-carbonyl}-piperazine-1-carboxylic acid tert-butyl ester]", "pIC50": 8.23},
      {"molecule": "Cc1cc(C#N)ncc1Oc1cc(Nc2ccc(C(=O)N3CCOC(C4CC4)C3)cn2)c2ncn(C)c2n1", "note": "(centres unmarked) [Compound 156, 5-[7-[[5-(2-cyclopropylmorpholine-4-carbonyl)pyridin-2-yl]amino]-3-methylimidazo[4,5-b]pyridin-5-yl]oxy-4-methylpyridine-2-carbonitrile]", "pIC50": 8.76},
      {"molecule": "Cc1cc(C#N)ncc1Oc1cc(Nc2ccc(C(=O)N3CCC(O)CC3)cn2)c2ncn(C)c2n1", "note": "[Compound 124, 5-[7-[[5-(4-hydroxypiperidine-1-carbonyl)pyridin-2-yl]amino]-3-methylimidazo[4,5-b]pyridin-5-yl]oxy-4-methylpyridine-2-carbonitrile]", "pIC50": 8.60},
      {"molecule": "Cc1cc(C#N)ncc1Oc1cc(Nc2ccc(C(=O)N3CCOCC3)nc2)c2ncn(C)c2n1", "note": "[Compound 28, 4-Methyl-5-{3-methyl-7-[6-(morpholine-4-carbonyl)-pyridin-3-ylamino]-3H-imidazo[4,5-b]pyridin-5-yloxy}-pyridine-2-carbonitrile]", "pIC50": 7.57},
      {"molecule": "Cc1cc(C#N)ncc1Oc1cc(Nc2ccc(C(=O)N3CC(C(=O)OC(C)(C)C)C3)cn2)c2ncn(C)c2n1", "note": "[Compound 122, tert-butyl 1-[6-[[5-[(6-cyano-4-methyl-3-pyridyl)oxy]-3-methyl-imidazo[4,5-b]pyridin-7-yl]amino]pyridine-3-carbonyl]azetidine-3-carboxylate]", "pIC50": 8.52},
      {"molecule": "Cc1cc(C#N)ncc1Oc1cc(Nc2ccc(C(=O)N3CCOCC3C#N)cn2)c2ncn(C)c2n1", "note": "(centres unmarked) [Compound 162, 4-[6-[[5-(6-cyano-4-methylpyridin-3-yl)oxy-3-methylimidazo[4,5-b]pyridin-7-yl]amino]pyridine-3-carbonyl]morpholine-3-carbonitrile]", "pIC50": 8.69},
      {"molecule": "Cc1cc(C#N)ncc1Oc1cc(Nc2ccc(N3C[C@H]4C[C@@H]3CN4C)nn2)c2ncn(C)c2n1", "note": "[Compound 152, 4-methyl-5-[3-methyl-7-[[6-[(1R,4R)-5-methyl-2,5-diazabicyclo[2.2.1]heptan-2-yl]pyridazin-3-yl]amino]imidazo[4,5-b]pyridin-5-yl]oxypyridine-2-carbonitrile]", "pIC50": 7.90},
      {"molecule": "Cc1cc(C#N)ncc1Oc1cc(Nc2ccc(C(=O)N3CCC(N(C)C)CC3)cn2)c2ncn(C)c2n1", "note": "[Compound 126, 5-[7-[[5-[4-(dimethyalmino)piperidine-1-carbonyl]pyridin-2-yl]amino]-3-methylimidazo[4,5-b]pyridin-5-yl]oxy-4-methylpyridine-2-carbonitrile]", "pIC50": 8.26},
      {"molecule": "Cc1cc(C#N)ncc1Oc1cc(Nc2ccc(C(=O)N3CCC4(COC4)C3)cn2)c2ncn(C)c2n1", "note": "[Compound 131, 4-methyl-5-[3-methyl-7-[[5-(2-oxa-7-azaspiro[3.4]octane-7-carbonyl)pyridin-2-yl]amino]imidazo[4,5-b]pyridin-5-yl]oxypyridine-2-carbonitrile]", "pIC50": 8.54}
    ]}
  ]
}
